Experimental data as given in ChEMBL document CHEMBL1154899, “Synthesis and biological evaluation of caffeic acid 3,4-dihydroxyphenethyl ester” (J Nat Prod, 2010).

Assays:
Format in all cases: functional
NCI/ADR-RES [1] = assay: Antiproliferative activity against human NCI/ADR-RES cells assessed as cell growth at 500 uM by SRB assay; conditions: read-out: Activity
HL-60(TB) [2] = assay: Antiproliferative activity against human HL-60(TB) cells assessed as cell growth at 5 uM by SRB assay; conditions: read-out: Activity
HOP-92 [3] = assay: Antiproliferative activity against human HOP92 cells assessed as cell growth at 0.5 uM by SRB assay; conditions: read-out: Activity
NCI/ADR-RES [4] = assay: Antiproliferative activity against human NCI/ADR-RES cells by SRB assay
NCI-H460 = assay: Antiproliferative activity against human NCI-H460 cells assessed as cell growth at 500 uM by SRB assay; conditions: read-out: Activity
OVCAR-4 = assay: Antiproliferative activity against human OVCAR4 cells assessed as cell growth at 5 mM by SRB assay; conditions: read-out: Activity
SR [5] = assay: Antiproliferative activity against human SR cells assessed as cell growth at 500 uM by SRB assay; conditions: read-out: Activity
CAKI-1 = assay: Antiproliferative activity against human Caki1 cells assessed as cell growth at 0.5 uM by SRB assay; conditions: read-out: Activity
SF-539 = assay: Antiproliferative activity against human SF539 cells by SRB assay
T47D = assay: Antiproliferative activity against human T47D cells assessed as cell growth at 50 uM by SRB assay; conditions: read-out: Activity
NCI-H522 = assay: Antiproliferative activity against human NCI-H522 cells assessed as cell growth at 500 uM by SRB assay; conditions: read-out: Activity
A549 = assay: Antiproliferative activity against human A549 cells assessed as cell growth at 0.5 uM by SRB assay; conditions: read-out: Activity
NCI-H226 = assay: Antiproliferative activity against human NCI-H226 cells by SRB assay
[6] = Antiproliferative activity against human Hs 578T cells assessed as cell growth at 50 uM by SRB assay; conditions: read-out: Activity
HCT-116 = assay: Antiproliferative activity against human HCT116 cells assessed as cell growth at 500 uM by SRB assay; conditions: read-out: Activity
SK-MEL-5 [7] = assay: Antiproliferative activity against human SK-MEL-5 cells assessed as cell growth at 5 uM by SRB assay; conditions: read-out: Activity
HOP-92 [8] = assay: Antiproliferative activity against human HOP92 cells assessed as cell growth at 5 uM by SRB assay; conditions: read-out: Activity
LOX IMVI [9] = assay: Antiproliferative activity against human LOXIMVI cells assessed as cell growth at 0.5 uM by SRB assay; conditions: read-out: Activity
DU-145 = assay: Antiproliferative activity against human DU145 cells assessed as cell growth at 50 uM by SRB assay; conditions: read-out: Activity
EKVX = assay: Antiproliferative activity against human EKVX cells assessed as cell growth at […] by SRB assay; conditions: read-out: Activity
HOP-92 [10] = assay: Antiproliferative activity against human HOP92 cells assessed as cell growth at 50 uM by SRB assay; conditions: read-out: Activity
HOP-62 [11] = assay: Antiproliferative activity against human HOP62 cells assessed as cell growth at 50 uM by SRB assay; conditions: read-out: Activity
SR [12] = assay: Antiproliferative activity against human SR cells assessed as cell growth at 5 uM by SRB assay; conditions: read-out: Activity
OVCAR-8 [13] = assay: Antiproliferative activity against human OVCAR8 cells by SRB assay
HOP-62 [14] = assay: Antiproliferative activity against human HOP62 cells assessed as cell growth at […] by SRB assay; conditions: read-out: Activity
HT-29 [15] = assay: Antiproliferative activity against human HT-29 cells assessed as cell growth at 50 uM by SRB assay; conditions: read-out: Activity
HL-60(TB) [16] = assay: Antiproliferative activity against human HL-60(TB) cells by SRB assay
SW-620 = assay: Antiproliferative activity against human SW620 cells assessed as cell growth at 5 uM by SRB assay; conditions: read-out: Activity
ACHN = assay: Antiproliferative activity against human ACHN cells assessed as cell growth at 500 uM by SRB assay; conditions: read-out: Activity
HT-29 [17] = assay: Antiproliferative activity against human HT-29 cells assessed as cell growth at 500 uM by SRB assay; conditions: read-out: Activity
LOX IMVI [18] = assay: Antiproliferative activity against human LOXIMVI cells assessed as cell growth at 500 uM by SRB assay; conditions: read-out: Activity
OVCAR-8 [19] = assay: Antiproliferative activity against human OVCAR8 cells assessed as cell growth at 0.5 uM by SRB assay; conditions: read-out: Activity
SN12C = assay: Antiproliferative activity against human SN12C cells assessed as cell growth at 0.5 uM by SRB assay; conditions: read-out: Activity
TK-10 = assay: Antiproliferative activity against human TK10 cells assessed as cell growth at 500 uM by SRB assay; conditions: read-out: Activity
SK-OV-3 = assay: Antiproliferative activity against human SKOV3 cells assessed as cell growth at 50 uM by SRB assay; conditions: read-out: Activity
KM12 = assay: Antiproliferative activity against human KM12 cells assessed as cell growth at 0.5 uM by SRB assay; conditions: read-out: Activity
A498 = assay: Antiproliferative activity against human A498 cells by SRB assay
HL-60(TB) [20] = assay: Antiproliferative activity against human HL-60(TB) cells assessed as cell growth at 5 mM by SRB assay; conditions: read-out: Activity
SK-MEL-2 = assay: Antiproliferative activity against human SK-MEL-2 cells assessed as cell growth at 0.5 uM by SRB assay; conditions: read-out: Activity
786-0 = assay: Antiproliferative activity against human 786-0 cells assessed as cell growth at 0.5 uM by SRB assay; conditions: read-out: Activity
SK-MEL-5 [21] = assay: Antiproliferative activity against human SK-MEL-5 cells assessed as cell growth at 0.5 uM by SRB assay; conditions: read-out: Activity
SR [22] = assay: Antiproliferative activity against human SR cells assessed as cell growth at 50 uM by SRB assay; conditions: read-out: Activity
[23] = Antiproliferative activity against human […] cells assessed as cell growth at 0.5 uM by SRB assay; conditions: read-out: Activity
OVCAR-5 = assay: Antiproliferative activity against human OVCAR5 cells at 5 uM by SRB assay
[24] = read-out: LC50 (the source's name)
[25] = read-out: pLC50 (the source's name) (converted)

SMILES: O=C(/C=C/c1ccc(O)c(O)c1)OCCc1ccc(O)c(O)c1
- growth at 500 µM (NCI/ADR-RES [1]): 78%
- growth at 5 µM (HL-60(TB) [2]): 85%
- growth at 0.5 µM (HOP-92 [3]): 70%
- GI50 (NCI/ADR-RES [4]; read-out: GI50): 10.9 µM
- CC50 (NCI/ADR-RES [4]; [24]): > 50 µM
- TGI (NCI/ADR-RES [4]; read-out: TGI): 44.9 µM
- GI50 (NCI/ADR-RES [4]; read-out: pGI50 (converted)): 10.5 µM
- CC50 (NCI/ADR-RES [4]; [25]): > 50.1 µM
- TGI (NCI/ADR-RES [4]; read-out: pTGI (converted)): 44.7 µM
- growth at 500 µM (NCI-H460): 94%
- growth at 5000 µM (OVCAR-4): 21%
- growth at 500 µM (SR [5]): 20%
- growth at 0.5 µM (CAKI-1): 82%
- GI50 (SF-539; read-out: GI50): 5.83 µM
- CC50 (SF-539; [24]): > 50 µM
- TGI (SF-539; read-out: TGI): 24.2 µM
- GI50 (SF-539; read-out: pGI50 (converted)): 5.89 µM
- CC50 (SF-539; [25]): > 50.1 µM
- TGI (SF-539; read-out: pTGI (converted)): 24 µM
- growth at 50 µM (T47D): 93%
- growth at 500 µM (NCI-H522): 10%
- growth at 0.5 µM (A549): 105%
- GI50 (NCI-H226; read-out: GI50): 13.3 µM
- CC50 (NCI-H226; [24]): > 50 µM
- TGI (NCI-H226; read-out: TGI): > 50 µM
- GI50 (NCI-H226; read-out: pGI50 (converted)): 13.5 µM
- CC50 (NCI-H226; [25]): > 50.1 µM
- TGI (NCI-H226; read-out: pTGI): > 50.1 µM
- growth at 50 µM [6]: 80%
- growth at 500 µM (HCT-116): 65%
- growth at 5 µM (SK-MEL-5 [7]): 97%
- growth at 5 µM (HOP-92 [8]): 60%
- growth at 0.5 µM (LOX IMVI [9]): 92%
- growth at 50 µM (DU-145): 100%
- growth (EKVX): 19%
- growth at 50 µM (HOP-92 [10]): 55%
- growth at 50 µM (HOP-62 [11]): 97%
- growth at 5 µM (SR [12]): 81%
- GI50 (OVCAR-8 [13]; read-out: GI50): 9.32 µM
- CC50 (OVCAR-8 [13]; [24]): > 50 µM
- TGI (OVCAR-8 [13]; read-out: TGI): > 50 µM
- GI50 (OVCAR-8 [13]; read-out: pGI50 (converted)): 9.33 µM
- CC50 (OVCAR-8 [13]; [25]): > 50.1 µM
- TGI (OVCAR-8 [13]; read-out: pTGI): > 50.1 µM
- growth (HOP-62 [14]): 38%
- growth at 50 µM (HT-29 [15]): 98%
- GI50 (HL-60(TB) [16]; read-out: GI50): 2.54 µM
- CC50 (HL-60(TB) [16]; [24]): > 50 µM
- TGI (HL-60(TB) [16]; read-out: TGI): 17.7 µM
- GI50 (HL-60(TB) [16]; read-out: pGI50 (converted)): 2.63 µM
- CC50 (HL-60(TB) [16]; [25]): > 50.1 µM
- TGI (HL-60(TB) [16]; read-out: pTGI (converted)): 17.8 µM
- growth at 5 µM (SW-620): 95%
- growth at 500 µM (ACHN): 38%
- growth at 500 µM (HT-29 [17]): 99%
- growth at 500 µM (LOX IMVI [18]): 57%
- growth at 0.5 µM (OVCAR-8 [19]): 78%
- growth at 0.5 µM (SN12C): 74%
- growth at 500 µM (TK-10): 81%
- growth at 50 µM (SK-OV-3): 88%
- growth at 0.5 µM (KM12): 97%
- GI50 (A498; read-out: GI50): 8.05 µM
- CC50 (A498; [24]): > 50 µM
- TGI (A498; read-out: TGI): 36.1 µM
- GI50 (A498; read-out: pGI50 (converted)): 8.13 µM
- CC50 (A498; [25]): > 50.1 µM
- TGI (A498; read-out: pTGI (converted)): 36.3 µM
- growth at 5000 µM (HL-60(TB) [20]): -30%
- growth at 0.5 µM (SK-MEL-2): 86%
- growth at 0.5 µM (786-0): 97%
- growth at 0.5 µM (SK-MEL-5 [21]): 97%
- growth at 50 µM (SR [22]): 77%
- growth at 0.5 µM [23]: 86%
- Activity (OVCAR-5): 89%
